From patent publication US20230032283A1, “Topical Compositions For Treating Skin Ailments” (priority 2021, published 2023)

Tested on: skin conditions (boil, folliculitis, ingrown hair)
Assay: Empirical studies of active ingredients in topical compositions
Type: in vivo, human

| Compound | relieving pain of papule-like boil or ingrown hair conditions (1% by weight in composition) | treating contemplated skin conditions (antibiotic ingredients blended into compositions) |
| --- | --- | --- |
| CCCCOc1ccc(OCCCN2CCOCC2)cc1 [Pramoxine] | effective |  |
| bacitracin zinc |  | effective |
